According to ChEMBL document CHEMBL1926681, “Novel inhibitors of epidermal growth factor receptor: (4-(Arylamino)-7H-pyrrolo[2,3-d]pyrimidin-6-yl)(1H-indol-2-yl)methanones and (1H-indol-2-yl)(4-(phenylamino)thieno[2,3-d]pyrimidin-6-yl)methanones” (Bioorg Med Chem, 2012):
Activity calls are given as the source filed them. No cut-off for these calls is given here.

Columns and labels:
[1] = target: T1, Epidermal growth factor receptor (Homo sapiens, UniProt P00533); test: Inhibition of EGFR using poly(Glu,Tyr)4:1 as substrate and [gamma33P]ATP at 1 uM after 60 mins by scintillation counting
[2] = target: Receptor tyrosine-protein kinase erbB-2 (Homo sapiens) (UniProt P04626); test: Inhibition of Erbb2 using poly(Glu,Tyr)4:1 as substrate and [gamma33P]ATP at 1 uM after 60 mins by scintillation counting
[3] = target: Vascular endothelial growth factor receptor 2 (Homo sapiens) (UniProt P35968); test: Inhibition of VEGFR2 using poly(Glu,Tyr)4:1 as substrate and [gamma33P]ATP at 1 uM after 60 mins by scintillation counting
[4] = target: Tyrosine-protein kinase ABL1 (Homo sapiens) (UniProt P00519); test: Inhibition of ABL1 using poly(Ala, Glu, Lys, Tyr) as substrate and [gamma33P]ATP at 1 uM after 60 mins by scintillation counting
[5] = target: Hepatocyte growth factor receptor (Homo sapiens) (UniProt P08581); test: Inhibition of MET using poly(Ala, Glu, Lys, Tyr) as substrate and [gamma33P]ATP at 1 uM after 60 mins by scintillation counting
[6] = target: T1, Epidermal growth factor receptor; test: Inhibition of EGFR using poly(Glu,Tyr)4:1 as substrate and [gamma33P]ATP after 60 mins by scintillation counting

Chain of Tyrosine-protein kinase ABL1 (Homo sapiens) (P00519 whole entry): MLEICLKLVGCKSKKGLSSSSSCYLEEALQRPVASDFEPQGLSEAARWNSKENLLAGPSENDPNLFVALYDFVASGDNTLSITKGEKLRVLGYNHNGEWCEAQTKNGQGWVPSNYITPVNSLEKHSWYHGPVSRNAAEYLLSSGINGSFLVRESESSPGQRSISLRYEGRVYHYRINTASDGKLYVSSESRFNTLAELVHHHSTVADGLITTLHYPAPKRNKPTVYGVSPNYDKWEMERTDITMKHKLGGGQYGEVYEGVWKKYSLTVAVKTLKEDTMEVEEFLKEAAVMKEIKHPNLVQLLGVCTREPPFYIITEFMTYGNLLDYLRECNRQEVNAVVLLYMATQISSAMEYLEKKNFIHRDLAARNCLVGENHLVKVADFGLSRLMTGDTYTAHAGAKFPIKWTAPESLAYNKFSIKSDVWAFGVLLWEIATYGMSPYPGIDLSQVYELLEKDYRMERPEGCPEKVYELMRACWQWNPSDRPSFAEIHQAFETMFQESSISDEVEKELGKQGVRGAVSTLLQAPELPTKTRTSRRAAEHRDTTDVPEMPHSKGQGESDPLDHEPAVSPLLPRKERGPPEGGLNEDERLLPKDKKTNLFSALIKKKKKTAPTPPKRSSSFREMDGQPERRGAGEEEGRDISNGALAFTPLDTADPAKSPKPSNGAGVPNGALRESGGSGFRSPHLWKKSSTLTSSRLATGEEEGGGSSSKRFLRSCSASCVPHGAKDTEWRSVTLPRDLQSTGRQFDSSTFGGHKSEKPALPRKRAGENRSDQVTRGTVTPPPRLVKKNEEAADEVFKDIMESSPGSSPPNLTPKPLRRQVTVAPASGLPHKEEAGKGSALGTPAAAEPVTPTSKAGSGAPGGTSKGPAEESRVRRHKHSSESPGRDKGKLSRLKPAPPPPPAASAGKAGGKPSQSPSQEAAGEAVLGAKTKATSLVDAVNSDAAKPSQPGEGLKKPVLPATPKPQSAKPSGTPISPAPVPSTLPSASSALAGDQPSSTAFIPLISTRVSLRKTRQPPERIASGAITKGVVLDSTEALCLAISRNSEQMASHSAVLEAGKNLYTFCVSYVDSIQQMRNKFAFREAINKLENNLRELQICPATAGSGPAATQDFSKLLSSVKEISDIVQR
T1 sequence (P00533 whole entry): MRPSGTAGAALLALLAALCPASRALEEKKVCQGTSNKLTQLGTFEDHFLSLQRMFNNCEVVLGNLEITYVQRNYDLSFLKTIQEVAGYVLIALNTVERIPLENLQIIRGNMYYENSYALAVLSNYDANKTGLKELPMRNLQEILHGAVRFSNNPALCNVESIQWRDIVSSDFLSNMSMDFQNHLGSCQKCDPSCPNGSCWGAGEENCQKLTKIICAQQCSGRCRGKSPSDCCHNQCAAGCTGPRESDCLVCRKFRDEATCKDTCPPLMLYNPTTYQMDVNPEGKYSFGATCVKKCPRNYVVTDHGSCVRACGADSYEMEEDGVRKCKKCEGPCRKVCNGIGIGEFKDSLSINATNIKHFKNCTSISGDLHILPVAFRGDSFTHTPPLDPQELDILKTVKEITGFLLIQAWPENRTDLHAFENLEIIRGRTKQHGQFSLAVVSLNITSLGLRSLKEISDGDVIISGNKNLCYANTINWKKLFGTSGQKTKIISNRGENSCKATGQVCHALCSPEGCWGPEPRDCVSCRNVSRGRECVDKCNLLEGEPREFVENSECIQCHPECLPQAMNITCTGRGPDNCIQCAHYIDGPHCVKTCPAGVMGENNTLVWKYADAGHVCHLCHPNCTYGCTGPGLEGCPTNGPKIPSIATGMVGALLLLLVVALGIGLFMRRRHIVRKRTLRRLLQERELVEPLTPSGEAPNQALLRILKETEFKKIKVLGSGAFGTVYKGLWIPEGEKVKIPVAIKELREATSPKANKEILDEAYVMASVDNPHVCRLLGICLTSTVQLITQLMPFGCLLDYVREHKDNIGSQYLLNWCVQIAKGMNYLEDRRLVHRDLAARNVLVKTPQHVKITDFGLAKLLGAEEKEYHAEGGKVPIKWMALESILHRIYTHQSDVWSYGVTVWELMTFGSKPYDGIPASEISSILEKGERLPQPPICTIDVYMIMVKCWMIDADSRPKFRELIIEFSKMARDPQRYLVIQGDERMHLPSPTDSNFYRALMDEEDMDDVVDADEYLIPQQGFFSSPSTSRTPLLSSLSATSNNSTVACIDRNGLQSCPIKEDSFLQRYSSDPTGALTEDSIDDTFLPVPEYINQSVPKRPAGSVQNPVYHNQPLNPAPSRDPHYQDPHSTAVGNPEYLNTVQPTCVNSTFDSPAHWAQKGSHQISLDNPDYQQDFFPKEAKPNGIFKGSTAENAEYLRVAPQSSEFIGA
Chain of Vascular endothelial growth factor receptor 2 (Homo sapiens) (P35968 whole entry): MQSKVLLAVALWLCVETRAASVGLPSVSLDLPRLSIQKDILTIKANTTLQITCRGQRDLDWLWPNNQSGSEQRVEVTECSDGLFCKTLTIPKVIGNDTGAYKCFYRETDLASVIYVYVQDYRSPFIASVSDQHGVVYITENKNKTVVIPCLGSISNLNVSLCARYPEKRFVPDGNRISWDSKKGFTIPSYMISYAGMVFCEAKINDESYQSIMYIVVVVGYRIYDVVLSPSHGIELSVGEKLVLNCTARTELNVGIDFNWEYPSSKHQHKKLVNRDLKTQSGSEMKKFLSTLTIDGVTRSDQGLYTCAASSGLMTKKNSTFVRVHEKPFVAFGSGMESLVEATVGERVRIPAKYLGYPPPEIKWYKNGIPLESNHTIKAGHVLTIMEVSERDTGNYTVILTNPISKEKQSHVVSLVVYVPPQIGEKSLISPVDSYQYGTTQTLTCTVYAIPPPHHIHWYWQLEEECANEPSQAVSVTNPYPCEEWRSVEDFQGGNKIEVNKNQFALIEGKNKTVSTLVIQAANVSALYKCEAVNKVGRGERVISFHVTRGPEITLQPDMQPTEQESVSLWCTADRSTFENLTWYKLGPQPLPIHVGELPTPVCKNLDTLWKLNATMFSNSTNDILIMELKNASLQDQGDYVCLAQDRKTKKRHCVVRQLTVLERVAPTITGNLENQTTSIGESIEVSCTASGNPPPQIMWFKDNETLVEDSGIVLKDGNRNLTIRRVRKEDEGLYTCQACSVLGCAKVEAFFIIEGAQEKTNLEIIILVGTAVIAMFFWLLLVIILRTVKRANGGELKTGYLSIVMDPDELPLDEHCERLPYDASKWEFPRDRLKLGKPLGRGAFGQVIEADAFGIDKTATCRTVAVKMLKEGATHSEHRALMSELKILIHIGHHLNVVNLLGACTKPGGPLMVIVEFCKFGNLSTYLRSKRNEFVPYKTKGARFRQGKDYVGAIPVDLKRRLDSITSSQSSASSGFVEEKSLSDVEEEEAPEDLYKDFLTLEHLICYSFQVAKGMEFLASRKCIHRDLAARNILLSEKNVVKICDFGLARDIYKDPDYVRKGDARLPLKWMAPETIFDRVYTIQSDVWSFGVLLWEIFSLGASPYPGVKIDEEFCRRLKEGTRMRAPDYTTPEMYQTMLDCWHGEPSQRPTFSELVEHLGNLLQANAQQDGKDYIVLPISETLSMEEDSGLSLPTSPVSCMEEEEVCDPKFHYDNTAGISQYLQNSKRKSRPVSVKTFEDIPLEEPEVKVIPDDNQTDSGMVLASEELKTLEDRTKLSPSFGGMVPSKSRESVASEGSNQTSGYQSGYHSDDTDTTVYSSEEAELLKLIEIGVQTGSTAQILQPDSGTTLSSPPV
Chain of Receptor tyrosine-protein kinase erbB-2 (Homo sapiens) (P04626 whole entry): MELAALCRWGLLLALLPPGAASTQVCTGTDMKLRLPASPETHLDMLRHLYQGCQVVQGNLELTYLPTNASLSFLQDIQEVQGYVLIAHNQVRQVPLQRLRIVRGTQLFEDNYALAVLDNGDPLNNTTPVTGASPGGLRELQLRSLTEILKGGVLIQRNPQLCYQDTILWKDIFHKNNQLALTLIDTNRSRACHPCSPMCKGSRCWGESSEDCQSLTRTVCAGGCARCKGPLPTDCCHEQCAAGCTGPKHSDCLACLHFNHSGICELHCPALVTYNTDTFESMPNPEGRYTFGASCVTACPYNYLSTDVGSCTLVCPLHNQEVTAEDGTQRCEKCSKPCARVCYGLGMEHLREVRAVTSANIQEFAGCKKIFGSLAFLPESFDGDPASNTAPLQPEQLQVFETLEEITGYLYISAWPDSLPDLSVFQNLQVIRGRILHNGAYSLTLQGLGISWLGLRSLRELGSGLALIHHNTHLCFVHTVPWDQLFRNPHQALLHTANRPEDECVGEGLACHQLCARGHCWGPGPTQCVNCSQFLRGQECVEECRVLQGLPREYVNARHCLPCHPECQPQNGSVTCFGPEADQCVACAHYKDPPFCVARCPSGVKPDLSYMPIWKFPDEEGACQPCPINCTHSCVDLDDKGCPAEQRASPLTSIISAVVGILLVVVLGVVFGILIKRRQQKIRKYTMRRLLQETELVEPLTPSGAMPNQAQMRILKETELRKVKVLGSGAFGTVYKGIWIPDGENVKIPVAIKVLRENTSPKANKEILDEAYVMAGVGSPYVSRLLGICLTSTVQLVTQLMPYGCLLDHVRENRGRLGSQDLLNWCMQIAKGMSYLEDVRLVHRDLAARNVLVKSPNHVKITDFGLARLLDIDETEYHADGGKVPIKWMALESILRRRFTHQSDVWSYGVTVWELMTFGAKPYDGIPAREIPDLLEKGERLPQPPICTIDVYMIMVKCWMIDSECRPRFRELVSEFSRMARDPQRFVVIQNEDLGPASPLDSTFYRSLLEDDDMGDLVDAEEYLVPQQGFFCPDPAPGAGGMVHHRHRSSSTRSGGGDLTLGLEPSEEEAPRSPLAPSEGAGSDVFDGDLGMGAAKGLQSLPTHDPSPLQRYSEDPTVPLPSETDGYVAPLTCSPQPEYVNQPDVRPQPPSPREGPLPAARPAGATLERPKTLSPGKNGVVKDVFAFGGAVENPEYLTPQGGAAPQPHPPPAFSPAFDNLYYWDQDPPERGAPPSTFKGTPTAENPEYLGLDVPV

Structure (SMILES) | inhibition [1] [%] | inhibition [2] [%] | inhibition [3] [%] | inhibition [4] | inhibition [5] | IC50 [6] [nM]
O=C(c1cc2ccccc2[nH]1)c1cc2c(Nc3ccc(Cl)cc3)ncnc2s1 | 80 | 46 | 19 | inactive | inactive | –
O=C(c1cc2ccccc2[nH]1)c1cc2c(Nc3ccc(Cl)cc3)ncnc2[nH]1 | 68 | 24 | 47 | inactive | inactive | –
CN(c1ccc(F)c(Cl)c1)c1ncnc2sc(C(=O)c3cc4ccccc4[nH]3)cc12 | 22 | 83 | 23 | inactive | inactive | –
O=C(c1cc2ccccc2[nH]1)c1cc2c(Nc3cccc(I)c3)ncnc2s1 | 73 | 75 | 0 | inactive | inactive | –
O=C(c1cc2ccccc2[nH]1)c1cc2c(Nc3ccc(O)cc3)ncnc2[nH]1 | 57 | 7 | 31 | inactive | inactive | –
C[C@@H](Nc1ncnc2[nH]c(C(=O)c3cc4ccccc4[nH]3)cc12)c1ccccc1 | 82 | 37 | 28 | inactive | inactive | –
O=C(c1cc2ccccc2s1)c1cc2c(Nc3ccc(F)c(Cl)c3)ncnc2s1 | 99 | 76 | 22 | inactive | inactive | 10.8
O=C(c1cc2ccccc2[nH]1)c1cc2c(Nc3ccc(F)c(Cl)c3)ncnc2[nH]1 | 88 | 22 | 47 | inactive | inactive | –
O=C(c1cc2ccccc2[nH]1)c1cc2c(Nc3cccc(I)c3)ncnc2[nH]1 | 88 | 52 | 10 | inactive | inactive | –
O=C(c1cc2ccccc2[nH]1)c1cc2c(Nc3ccc(OCc4cccc(F)c4)cc3Cl)ncnc2[nH]1 | 77 | 13 | 53 | inactive | inactive | –
COc1cnc2[nH]c(C(=O)c3cc4c(Nc5cccc(I)c5)ncnc4[nH]3)cc2c1 | 77 | 20 | 20 | inactive | inactive | –
O=C(c1cc2ccccc2[nH]1)c1cc2c(Nc3cccc(C(F)(F)F)c3)ncnc2s1 | 79 | 42 | 29 | inactive | inactive | –
O=C(c1cc2cc(O)ccc2[nH]1)c1cc2cncnc2[nH]1 | 0 | 0 | 0 | inactive | inactive | –
O=C(c1cc2ccccc2[nH]1)c1cc2c(Nc3ccc(Br)cc3F)ncnc2s1 | 82 | 51 | 46 | inactive | inactive | –
O=C(c1cc2ccccc2[nH]1)c1cc2c(Nc3ccc(C(F)(F)F)cc3)ncnc2s1 | 43 | 34 | 24 | inactive | inactive | –
O=C(c1cc2ccccc2[nH]1)c1cc2c(Nc3ccc(F)cc3)ncnc2s1 | 96 | 50 | 45 | inactive | inactive | 43.7
C#Cc1cccc(Nc2ncnc3sc(C(=O)c4cc5ccccc5[nH]4)cc23)c1 | 93 | 60 | 9 | inactive | inactive | 18.7
O=C(c1cc2ccccc2[nH]1)c1cc2c(Nc3ccc(OCc4cccc(F)c4)cc3Cl)ncnc2s1 | 91 | 57 | 29 | inactive | inactive | 18.5
O=C(c1cc2ccccc2[nH]1)c1cc2c(Nc3ccc(Br)cc3F)ncnc2[nH]1 | 50 | 14 | 22 | inactive | inactive | –
O=C(c1cc2ccccc2[nH]1)c1cc2c(NCc3ccccc3)ncnc2s1 | 77 | 38 | 17 | inactive | inactive | –
O=C(c1cc2ccccc2[nH]1)c1cc2c(NCc3ccccc3)ncnc2[nH]1 | 55 | – | 13 | inactive | inactive | –
C#Cc1cccc(Nc2ncnc3[nH]c(C(=O)c4cc5ccccc5[nH]4)cc23)c1 | 83 | 70 | 5 | inactive | inactive | –
O=C(c1cc2ccccc2o1)c1cc2c(Nc3ccc(F)c(Cl)c3)ncnc2s1 | 85 | 88 | 51 | inactive | inactive | –
C[C@@H](Nc1ncnc2sc(C(=O)c3cc4ccccc4[nH]3)cc12)c1ccccc1 | 88 | 61 | 5 | inactive | inactive | –
COc1ccc2[nH]c(C(=O)c3cc4c(Nc5cccc(I)c5)ncnc4[nH]3)cc2c1 | 88 | 25 | 17 | inactive | inactive | –
